# Assay: MTT viability assay, L929
# Format: cell-based, murine
# Conditions: mouse, L929 fibroblasts, tested 1–500 µM
smiles,measurement,value
"Cc1noc(N)c1-c1nc2c(NCCCN(C)C)ncnc2o1 [Compound 3g, 2-(5-Amino-3-methylisoxazol-4-yl)-7-N-[3-(N,N-dimethylamino)propyl]aminooxazolo[5,4-d]pyrimidine]",CC50,83.7 ± 4.42 µM

# — article PMC9569971, “New Oxazolo[5,4-d]pyrimidines as Potential Anticancer Agents: Their Design, Synthesis, and In Vitro Biological Activity Research” (International Journal of Molecular Sciences, 2022)
